The values below are quoted from earlier work in patent US20110189281A1, “TELMISARTAN AND HYDROCHLOROTHIAZIDE COMBINATION THERAPY” (BOEHRINGER INGELHEIM INTERNATIONAL GMBH, priority 2004, published 2011).

Molecules are shown by their SMILES.

The conditions of this series: physiological pH range of the gastrointestinal tract, pH 1 to 7; free acid form.

On to `CCCc1nc2c(C)cc(-c3nc4ccccc4n3C)cc2n1Cc1ccc(-c2ccccc2C(=O)O)cc1` [Telmisartan, 4′-[(1,4′-dimethyl-2′-propyl-[2,6′-bi-1H-benzimidazol]-1′-yl)methyl]-[1,1′-biphenyl]-2-carboxylic acid], for which the “Solubility in aqueous systems” value is “very poor solubility”.
